Where two headings read alike, the source gives them in different places.

Data set [1] is described as follows: Rat dose-range PK study (dose escalation pharmacokinetics). Format: in vivo. The note with it: for AUC(0-t): male, SD, plasma, PO, read-out: AUC24 hr. How it is done: Male SD rats (250-300 g) were purchased from Charles River Laboratory; upon receipt, animals were placed under light-dark cycle (6:30 am-6:30 pm lights on). They were allowed ad libitum access to water and 4 pieces of food daily (Purina Meals Rodent Diet, Product Number 5001).
Compound formulations were prepared as following: The IV injection formulation was prepared in 20% hydroxypropyl-beta-cyclodextrin with concentration of 0.667 mg/mL. […] The dosing volume for IV injection was 3 mL/Kg and for PO administration was 10 mL/Kg. Four rats were used for each dose group. […]
All rats (4 rats per group, housed individually) were fasted overnight prior to in-life phase. On the next morning, rats were received an IV (via tail vein injection) injection or gavage dose of compound starting at 8 am (IV) and 9 am (PO). Next, each rat were orbital bled at 0.085, 0.25, 0.5, 1, 2, 4, 6, 8, and 24 hr (IV) or 0.5, 1, 2, 4, 6, 8, and 24 hr (PO) to collect blood samples for PK analysis.
The blood samples were collected via orbital bleeding into tubes containing EDTA, 0.25 mL blood each time. These samples were put on ice and within 2 hours plasma was prepared by centrifugation at 3,000 rpm for 30 min at 4° C. 100 μl of plasma were transferred into a 96-tube box for PK analysis.
Plasma samples were prepared as follows. Two hundred microliters of acetonitrile containing internal standard was added to 100 μL of plasma to precipitate proteins. Samples were centrifuged at 3000 g for 5 minutes and supernatant removed for analysis by LC-MS-MS. Calibration standards and quality control samples were prepared by adding a known volume of standard stock solution (50% methanol, 50% H2O) directly into blank plasma and treated identically to collected plasma samples. Calibration standards were typically prepared in the range of 2.0 ng/mL to 110 μg/mL with linear regression for quantitation. These sample preparation steps were automated using a liquid handling workstation (Tomtec Quadra 96) in the 96-well format. Reversed phase LC-MS-MS analysis was performed using either multiple reaction or selected ion monitoring for detection of characteristic ions for each drug candidate and the internal standard used was propranolol for positive ions or chloramphenicol for negative ions.
Results were calculated by noncompartmental analysis using WinNonlin Pro version 3.1 based on plasma concentration-time profiles for individual animals. Plasma levels were determined as described above and the oral and intravenous area under the concentration vs. time curve (AUC was calculated using the linear trapezoidal rule up to the last measurable concentration and was then extrapolated to infinity) were compared to determine the % bioavailability (% F) by the following formula: Dose (IV)*AUC (oral)/Dose (oral)*AUC (IV).
There may be significant variation within the individual animals and the analytical method and that variation was evidenced by the % CV. AUMC was the first statistical moment of the AUC and was used to calculate the mean residence time (MRT=AUMC/AUC), which was the average time the compound was in the animal. The Cmax represented the maximum concentration observed, the Tmax was the time to reach that maximum concentration and the T1/2 was the calculated terminal half-life of the compound in plasma using the slope of a log concentration vs time plot if there were sufficient elimination phase data points (at least three data points in the terminal phase excluding the Cmax). Systemic clearance (CL=Dose(IV)/AUC(IV)) was the volume of fluid (containing compound) from which compound was removed completely per unit time. Volume of distribution at steady state (Vss=CL*MRT) was the extent of distribution of a drug from the plasma to the tissues at steady state.

The subject of the next data set is Male Sprague Dawley rats. As to the kind of experiment: Oral glucose tolerance test (oGTT) in rats. Format: in vivo, rat. The note with it: fasted male SD rats, p.o. 30 min before dextrose 3 g/kg, mean of six animals, dose of the group not stated (0.3, 3 or 30 mg/kg tested). How it is done: Male Sprague Dawley rats (Harlan, San Diego, Calif.) weighing approximately 350-375 g were fasted for 16 hours and randomly grouped (n=6) to receive a RUP3 agonist at 0.3, 3 or 30 mg/kg. Compounds were delivered orally via a gavage needle (p.o., volume 2 mL/kg). At time 0, levels of blood glucose were assessed using a glucometer (Accu-Chek Advantage, Roche Diagnostics), and rats were administered either vehicle (20% hydroxypropyl-beta-cyclodextrin) or test compound. Thirty minutes after administration of test compound, levels of blood glucose were again assessed, and rats were administered dextrose orally at a dose of 3 g/kg. Blood glucose measurements were then taken 30 min, 60 min, and 120 min after this time.

In data set [2] the target is T1, RUP3 receptor (Homo sapiens, UniProt Q8TDV5).
T1 construct: expressed in transfected cells; host or cells: melanophores (cultured per Potenza and Lerner 1992), electroporated
T1 sequence (Q8TDV5 1-335): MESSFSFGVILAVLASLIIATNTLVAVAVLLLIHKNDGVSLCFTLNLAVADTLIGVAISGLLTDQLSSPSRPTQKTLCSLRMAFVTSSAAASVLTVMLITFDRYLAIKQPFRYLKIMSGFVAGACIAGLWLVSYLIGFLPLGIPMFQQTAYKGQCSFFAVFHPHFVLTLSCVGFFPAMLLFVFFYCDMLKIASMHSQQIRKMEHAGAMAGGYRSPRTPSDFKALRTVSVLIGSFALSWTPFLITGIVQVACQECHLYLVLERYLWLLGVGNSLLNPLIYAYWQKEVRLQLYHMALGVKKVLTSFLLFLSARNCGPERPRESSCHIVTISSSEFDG
Nature of the data set: RUP3 dose response in melanophores (human receptor). Type of data set: cell-based. The method, then: (§1) Melanophores are maintained in culture as reported by Potenza, M. N. and Lerner, M. R., in Pigment Cell Research, Vol. 5, 372-378, 1992 and transfected with the RUP3 expression vector (pCMV) using electroporation. Following electroporation, the transfected cells are plated into 96 well plates for the assay. The cells are then allowed to grow for 48 hours in order to both recover from the electroporation procedure and attain maximal receptor expression levels. On the assay day, the growth medium on the cells is replaced with serum-free buffer containing 10 nM melatonin. The melatonin acts via an endogenous Gi-coupled GPCR in the melanophores to lower intracellular cAMP levels. In response to lowered cAMP levels, the melanophores translocate their pigment to the center of the cell. The net effect of this is a significant decrease in the absorbance reading of the cell monolayer in the well, measured at […]. After a 1-hour incubation in melatonin, the cells become completely pigment-aggregated. At this point a baseline absorbance reading is collected. Serial dilutions of test compounds are then added to the plate and compounds that stimulate RUP3 produce increases in intracellular cAMP levels. […] The measured increase in absorbance compared to the baseline reading allows one to quantitate the degree of receptor stimulation and plot a dose-response curve.

The target of data set [3] is T2, RUP3 receptor (Canis lupus familiaris, UniProt A0A8I3QZL6).
T2 sequence (A0A8I3QZL6 1-335): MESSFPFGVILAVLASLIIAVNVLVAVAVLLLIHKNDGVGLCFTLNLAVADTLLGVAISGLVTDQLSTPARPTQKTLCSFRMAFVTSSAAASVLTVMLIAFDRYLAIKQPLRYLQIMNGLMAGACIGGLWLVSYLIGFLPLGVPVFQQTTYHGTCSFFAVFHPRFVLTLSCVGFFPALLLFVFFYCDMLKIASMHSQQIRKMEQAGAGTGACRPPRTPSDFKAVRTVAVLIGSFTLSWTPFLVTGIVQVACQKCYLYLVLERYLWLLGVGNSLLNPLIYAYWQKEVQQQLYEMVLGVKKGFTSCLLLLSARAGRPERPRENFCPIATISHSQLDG
Nature of the data set: RUP3 dose response in melanophores (dog receptor). Type of data set: cell-based. The method, then:
as §1

Data set [4] concerns the target T3, RUP3 receptor (Mus musculus, UniProt Q7TQP3).
T3 construct: expressed in transfected cells; host or cells: melanophores (cultured per Potenza and Lerner 1992), electroporated
T3 sequence (Q7TQP3 1-335): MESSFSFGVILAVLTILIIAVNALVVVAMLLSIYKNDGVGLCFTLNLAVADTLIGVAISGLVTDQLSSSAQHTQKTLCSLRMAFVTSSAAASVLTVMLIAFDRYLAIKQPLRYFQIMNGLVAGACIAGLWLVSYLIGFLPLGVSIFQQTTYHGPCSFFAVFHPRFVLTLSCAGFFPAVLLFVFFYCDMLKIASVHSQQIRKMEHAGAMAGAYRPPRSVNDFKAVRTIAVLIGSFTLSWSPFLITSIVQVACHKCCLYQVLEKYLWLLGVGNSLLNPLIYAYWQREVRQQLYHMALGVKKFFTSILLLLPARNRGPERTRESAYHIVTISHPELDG
As to the kind of experiment: RUP3 dose response in melanophores (mouse receptor). Format: cell-based. The method, then: as §1

Data set [5] deals with T4, RUP3 receptor (Rattus norvegicus, UniProt Q7TQN8).
T4 construct: expressed in transfected cells; host or cells: melanophores (cultured per Potenza and Lerner 1992), electroporated
T4 sequence (Q7TQN8 1-468): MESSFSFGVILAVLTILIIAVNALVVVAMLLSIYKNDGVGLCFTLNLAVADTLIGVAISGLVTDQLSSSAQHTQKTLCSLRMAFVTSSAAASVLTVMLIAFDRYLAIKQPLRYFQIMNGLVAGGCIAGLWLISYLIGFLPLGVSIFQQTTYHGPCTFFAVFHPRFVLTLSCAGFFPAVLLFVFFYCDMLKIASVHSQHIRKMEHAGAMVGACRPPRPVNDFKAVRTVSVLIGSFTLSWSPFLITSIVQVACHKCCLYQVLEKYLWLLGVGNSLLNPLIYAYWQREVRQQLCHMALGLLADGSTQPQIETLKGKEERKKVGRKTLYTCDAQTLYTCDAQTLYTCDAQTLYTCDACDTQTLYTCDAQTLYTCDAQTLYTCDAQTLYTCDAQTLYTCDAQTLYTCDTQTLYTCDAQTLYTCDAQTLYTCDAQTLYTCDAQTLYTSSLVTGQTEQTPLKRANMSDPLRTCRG
Nature of the data set: RUP3 dose response in melanophores (rat receptor). Type of data set: cell-based. How it is done: as §1

As for `COc1c(Nc2ccc(S(C)(=O)=O)nc2C)ncnc1OC1CCN(C(=O)OC(C)C)CC1` [Compound C, 4-[6-(6-Methanesulfonyl-2-methyl-pyridin-3-ylamino)-5-methoxy-pyrimidin-4-yloxy]-piperidine-1-carboxylic acid isopropyl ester], the results for the AUC(0-t) in data set [1] (dose 3 mg), in data set [1] (dose 30 mg) and in data set [1] (dose 300 mg) were 14900 ng·h/mL, 65900 ng·h/mL and 419000 ng·h/mL, respectively.
On to `CC(C)OC(=O)N1CCC(Oc2ncnc3c2cnn3-c2ccc(S(C)(=O)=O)cc2F)CC1` [Compound A, 4-[1-(2-Fluoro-4-methanesulfonyl-phenyl)-1H-pyrazolo[3,4-d]pyrimidin-4-yloxy]-piperidine-1-carboxylic acid isopropyl ester], for which the AUC(0-t) amounted to 2590 ng·h/mL in data set [1] (dose 10 mg); 9930 ng·h/mL in data set [1] (dose 30 mg); 133000 ng·h/mL in data set [1] (dose 100 mg); 97000 ng·h/mL in data set [1] (dose 300 mg); 377000 ng·h/mL in data set [1] (dose 1000 mg).
In the case of `COc1c(Nc2ccc(S(C)(=O)=O)nc2C)ncnc1OC1CCN(c2nc(C(C)C)no2)CC1` [Compound G, {6-[1-(3-Isopropyl-[1,2,4]oxadiazol-5-yl)-piperidin-4-yloxy]-5-methoxy-pyrimidin-4-yl}-(6-methanesulfonyl-2-methyl-pyridin-3-yl)-amine], the AUC(0-t) in data set [1] (dose 3 mg) turned out to be 1660 ng·h/mL; in data set [1] (dose 30 mg) it was 6470 ng·h/mL; in data set [1] (dose 300 mg), 33800 ng·h/mL.
Regarding `Cc1c(Nc2ccc(S(C)(=O)=O)cc2F)ncnc1OC1CCN(c2nc(C(C)C)no2)CC1` [Compound B, (2-Fluoro-4-methanesulfonyl-phenyl)-{6-[1-(3-isopropyl-[1,2,4]oxadiazol-5-yl)-piperidin-4-yloxy]-5-methyl-pyrimidin-4-yl}-amine], the AUC(0-t) came to 2120 ng·h/mL in data set [1] (dose 3 mg), 5990 ng·h/mL in data set [1] (dose 30 mg) and 11000 ng·h/mL in data set [1] (dose 300 mg).
Consider `Cc1nc(S(C)(=O)=O)ccc1Nc1ncnc(OC2CCN(C(=O)OC(C)C)CC2)c1C` [Compound E, 4-[6-(6-methanesulfonyl-2-methyl-pyridin-3-ylamino)-5-methyl-pyrimidin-4-yloxy]-piperidine-1-carboxylic acid isopropyl ester], for which the AUC(0-t) is 4730 ng·h/mL in data set [1] (dose 3 mg), 55900 ng·h/mL in data set [1] (dose 30 mg) and 515000 ng·h/mL in data set [1] (dose 300 mg).
As for `COc1c(Nc2cnc(S(C)(=O)=O)cc2C)ncnc1OC1CCN(C(=O)OC(C)C)CC1` [Compound D, 4-[6-(6-Methanesulfonyl-4-methyl-pyridin-3-ylamino)-5-methoxypyrimidin-4-yloxy]-piperidine-1-carboxylic acid isopropyl ester], the values for the AUC(0-t) in data set [1] (dose 3 mg), in data set [1] (dose 30 mg) and in data set [1] (dose 300 mg) were 5600 ng·h/mL, 29400 ng·h/mL and 54700 ng·h/mL, respectively.
For `COc1c(Nc2ccc(-n3cncn3)nc2C)ncnc1OC1CCN(C(=O)OC(C)C)CC1` [Compound of Formula (I), 4-[5-Methoxy-6-(2-methyl-6-[1,2,4]triazol-1-yl-pyridin-3-ylamino)-pyrimidin-4-yloxy]-piperidine-1-carboxylic acid isopropyl ester], the “mean percent inhibition of glucose excursion” value with Male Sprague Dawley rats was 60%. The EC50 on RUP3 receptor [2] stood at 2 nM; at RUP3 receptor [3] it was 4 nM; at RUP3 receptor [4] it was 57 nM; at RUP3 receptor [5], 81 nM. In data set [1] (PO 3, 30, 300 mg/Kg, FIG. 1), the “dose escalation pharmacokinetics (AUC vs dose)” value is given as “essentially linear”. The results for the AUC(0-t) in data set [1] (dose 3 mg), in data set [1] (dose 30 mg) and in data set [1] (dose 300 mg) were 3590 ng·h/mL, 79800 ng·h/mL and 286000 ng·h/mL, respectively.
